# Source: US20250206732A1, “COMPOUNDS AND METHODS FOR THE TARGETED DEGRADATION OF KRAS” (Arvinas Operations, Inc., priority 2022, published 2025)
# Assays:
# AsPC-1 HiBiT-KRASG12D = target: T1, AsPC-1 HiBiT-KRASG12D (Homo sapiens, UniProt P01116, G12D); assay: HiBiT degradation assay (G12D), AsPC-1 HiBiT-KRASG12D cells; format: cell-based; conditions: 24 hours treatment; for Dmax: ASPC1, AsPC-1 HiBiT-KRASG12D cells, maximum degradation observed; for DC50: AsPC-1 HiBiT-KRASG12D cells, HiBiT luminescence
# T1 construct: insert the HiBiT tag onto the N-terminus of one or more of the endogenous KRAS alleles; endogenous in cells; host or cells: AsPC-1 (ATCC CRL-1682), CRISPR-Cas9 knock-in clone, one tagged allele
# T1 sequence (P01116 1-188 isoform P01116-2 G12D): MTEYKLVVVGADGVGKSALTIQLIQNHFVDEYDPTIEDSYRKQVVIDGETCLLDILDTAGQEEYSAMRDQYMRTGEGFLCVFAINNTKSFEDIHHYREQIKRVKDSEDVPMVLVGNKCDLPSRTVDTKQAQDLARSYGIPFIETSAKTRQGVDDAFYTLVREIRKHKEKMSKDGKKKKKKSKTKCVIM
# Method in brief: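 24 h cmpd treatment, 37° C/5% CO2, AsPC-1 HiBiT-KRASG12D clone (CRISPR N-term tag). Alamar blue 1×, 4 h, fluorescence. PBS wash, Nano-Glo HiBiT lytic reagent, 45 min RT, luminescence. Triplicates.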
# SW1573 HiBiT-KRASG12C = target: T2, SW1573 HiBiT-KRASG12C (Homo sapiens, UniProt P01116, G12C); assay: HiBiT degradation assay (G12C), SW1573 HiBiT-KRASG12C cells; format: cell-based; conditions: 24 hours treatment; for DC50: HiBiT luminescence; for Dmax: maximum degradation observed;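 for DC50: Letter grades: C is 1000 to 3000 nM and D is above 3000 nM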
# T2 construct: expressed in transfected cells
# T2 sequence (P01116 1-188 isoform P01116-2 G12C): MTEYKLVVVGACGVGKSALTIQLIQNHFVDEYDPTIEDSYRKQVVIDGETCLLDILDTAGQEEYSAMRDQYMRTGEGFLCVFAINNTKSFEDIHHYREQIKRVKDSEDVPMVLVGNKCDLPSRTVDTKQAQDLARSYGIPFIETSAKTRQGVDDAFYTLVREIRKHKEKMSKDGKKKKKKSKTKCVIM
# Description: Reagents. SW1573 (CRL-2170), AsPC-1 (CRL-1682), and SW620 (CCL-227) cells were purchased from ATCC. SW1573 cells are homozygous for the G12C mutation in KRAS, AsPC-1 cells are homozygous for the G12D mutation, and SW620 cells are homozygous for the G12V mutation. SW1573 cells were cultured in DMEM+F12+Glutamax (+Sodium Bicarbonate, +sodium pyruvate, ThermoFisher scientific, #10565) supplemented with 10% FBS (ThermoFisher scientific, #2060357) and 1% Antibiotic-Antimycotic (ThermoFisher scientific, #15240096). AsPC-1 cells were cultured in GIBCO RPMI-1640 (ThermoFisher scientific, catalog #61870-036 with Glutamax, No HEPES, No Na Pyruvate) supplemented with 10% FBS (ThermoFisher scientific, catalog #2060357) and 1× Penicillin-Streptomycin (ThermoFisher scientific, catalog #15140122, 10000 U/ml, 100×). SW620 cells were cultured in DMEM Glutamax (ThermoFisher scientific, catalog #10566016) supplemented with 10% FBS (ThermoFisher scientific, catalog #2060357) and 1× Penicillin-Streptomycin (ThermoFisher scientific, catalog #15140122, 10000 U/ml, 100×). For degradation assays, 384 well plates were used. Alamar blue was purchased from ThermoFisher scientific (A50101) and used according to manufacturer instructions. The Nano-Glo® HiBiT Lytic Detection System and Nano-Glo® HiBiT Blotting System were purchased from Promega (#N3050 and #N2410) and used according to manufacturer instructions.
# HiBiT-tagged cell line generation. To create the SW1573 HiBiT-KRASG12C cell line, the nucleotide sequence encoding the 11 amino acid HiBiT tag from Promegal was appended to the N-terminus of the KRASG12C coding sequence. This synthesized DNA was cloned into a modified pcDNA3.1 vector under the control of the thymidine kinase (TK) promoter. This HiBiT-KRASG12C expressing plasmid was transfected into parental SW1573 cells and colonies were selected using 400 μg/mL zeocin. The resulting clonal lines were screened for expression of HiBiT-KRASG12C protein using Nano-Glo® HiBiT Blotting System. A luminescent band of the correct size for HiBiT-KRASG12C was detected in several clones. Clone E6 was selected for further studies.
# HiBiT degradation assays (G12C and G12D). Either SW1573 HiBiT-KRasG12C or AsPC-1 HiBiT-KRasG12D cells were plated at 9000 or 15,000 cells/well in a 384 well plate (Corning #3770). Compounds of the present disclosure and positive controls were diluted in the appropriate cell media and applied to the plated cells resulting in a final concentration titration of 10 μM to 508 pM in 0.5% DMSO. Gambogic acid was used as a positive control for cytotoxicity and titrated from 10 μM to 78 nM. All assays were performed in triplicate. Cells were treated with compounds for 24 hours at 37° C. in an incubator containing 5% CO2. Following treatment, alamar blue was used to determine if any compounds led to a loss in cell viability after 24 hours. The 10× alamar blue reagent was added to a final concentration of 1× as recommended by the manufacturer and cells were returned to the incubator for 4 hours. Plates were then allowed to equilibrate to room temperature and fluorescence was measured using a Perkin-Elmer EnVision. After completion of the fluorescence read, the liquid from each well was removed and the cells were washed with PBS. The Nano-Glo® HiBiT detection reagent was prepared according to the manufacturer's instructions and added to each well after the PBS wash was removed. Following incubation at room temperature for 45 minutes, the luminescence was read using the ultra-sensitive luminescence aperture on the Envision instrument.
# Data analysis. Fluorescence values from the alamar blue treatment were normalized to the DMSO-only control for each compound titration. […]
smiles,measurement,setting,value
"CCc1cccc2cc(O)cc(-c3ncc4c(N5CC6CCC(C5)N6)nc(OCCN5CCC(OCC(=O)N[C@H](C(=O)N6C[C@H](O)C[C@H]6C(=O)N[C@@H](C)c6ccc(-c7scnc7C)cc6)C(C)(C)C)CC5)nc4c3F)c12 [Compound 12, (2S,4R)-1-[(2S)-2-[[2-[[1-[2-[4-(3,8-diazabicyclo[3.2.1]octan-3-yl)-7-(8-ethyl-3-hydroxy-1-naphthyl)-8-fluoro-pyrido[4,3-d]pyrimidin-2-yl]oxyethyl]-4-piperidyl]oxy]acetyl]amino]-3,3-dimethyl-butanoyl]-4-hydroxy-N-[(1S)-1-[4-(4-methylthiazol-5-yl)phenyl]ethyl]pyrrolidine-2-carboxamide]",Dmax,AsPC-1 HiBiT-KRASG12D,80 to 100%
same,DC50,AsPC-1 HiBiT-KRASG12D,1 to 3 µM
same,DC50,SW1573 HiBiT-KRASG12C,> 3 µM
CCc1cccc2cc(O)cc(-c3ncc4c(N5CC6CCC(C5)N6)nc(OCCN5CCC(CCOCC(=O)N[C@H](C(=O)N6C[C@H](O)C[C@H]6C(=O)N[C@@H](C)c6ccc(-c7scnc7C)cc6)C(C)(C)C)CC5)nc4c3F)c12 [Compound 13],Dmax,AsPC-1 HiBiT-KRASG12D,80 to 100%
same,DC50,AsPC-1 HiBiT-KRASG12D,0.6 to 1 µM
same,DC50,SW1573 HiBiT-KRASG12C,> 3 µM
"CCc1cccc2cc(O)cc(-c3ncc4c(N5CC6CCC(C5)N6)nc(OCCN5CCC6(CC5)CN(c5cc([C@@H](C(=O)N7C[C@H](O)C[C@H]7C(=O)N[C@@H](C)c7ccc(-c8scnc8C)cc7)C(C)C)on5)C6)nc4c3F)c12 [Compound 15, (2S,4R)-1-[(2S)-2-[3-[7-[2-[4-(3,8-diazabicyclo[3.2.1]octan-3-yl)-7-(8-ethyl-3-hydroxy-1-naphthyl)-8-fluoro-pyrido[4,3-d]pyrimidin-2-yl]oxyethyl]-2,7-diazaspiro[3.5]nonan-2-yl]isoxazol-5-yl]-3-methyl-butanoyl]-4-hydroxy-N-[(1S)-1-[4-(4-methylthiazol-5-yl)phenyl]ethyl]pyrrolidine-2-carboxamide]",Dmax,AsPC-1 HiBiT-KRASG12D,20 to 60%
same,DC50,AsPC-1 HiBiT-KRASG12D,1 to 3 µM
same,DC50,SW1573 HiBiT-KRASG12C,> 3 µM
"CCc1cccc2cc(O)cc(-c3ncc4c(N5CC6CCC(C5)N6)nc(OCCN5CCC6(CC5)CN(c5cc([C@H](C(=O)N7C[C@H](O)C[C@H]7C(=O)N[C@@H](C)c7ccc(-c8scnc8C)cc7)C(C)C)on5)C6)nc4c3F)c12 [Compound 16, (2S,4R)-1-[(2R)-2-[3-[7-[2-[4-(3,8-diazabicyclo[3.2.1]octan-3-yl)-7-(8-ethyl-3-hydroxy-1-naphthyl)-8-fluoro-pyrido[4,3-d]pyrimidin-2-yl]oxyethyl]-2,7-diazaspiro[3.5]nonan-2-yl]isoxazol-5-yl]-3-methyl-butanoyl]-4-hydroxy-N-[(1S)-1-[4-(4-methylthiazol-5-yl)phenyl]ethyl]pyrrolidine-2-carboxamide]",Dmax,AsPC-1 HiBiT-KRASG12D,80 to 100%
same,DC50,AsPC-1 HiBiT-KRASG12D,< 0.6 µM
same,DC50,SW1573 HiBiT-KRASG12C,> 3 µM
"C#Cc1cccc2cc(O)cc(-c3ncc4c(N5CC6CCC(C6)C5)nc(OCCN5CCC(COCC(=O)N[C@H](C(=O)N6C[C@H](O)C[C@H]6C(=O)N[C@@H](C)c6ccc(-c7scnc7C)cc6)C(C)(C)C)CC5)nc4c3F)c12 [Compound 17, (2S,4R)-1-[(2S)-2-[[2-[[1-[2-[4-(3-azabicyclo[3.2.1]octan-3-yl)-7-(8-ethynyl-3-hydroxy-1-naphthyl)-8-fluoro-pyrido[4,3-d]pyrimidin-2-yl]oxyethyl]-4-piperidyl]methoxy]acetyl]amino]-3,3-dimethyl-butanoyl]-4-hydroxy-N-[(1S)-1-[4-(4-methylthiazol-5-yl)phenyl]ethyl]pyrrolidine-2-carboxamide]",DC50,AsPC-1 HiBiT-KRASG12D,> 3 µM
same,DC50,SW1573 HiBiT-KRASG12C,1 to 3 µM
same,Dmax,SW1573 HiBiT-KRASG12C,20 to 60%
"C#Cc1cccc2cc(O)cc(-c3ncc4c(N5CC6CCC(C6)C5)nc(OCCN5CCC(COc6cc([C@H](C(=O)N7C[C@H](O)C[C@H]7C(=O)N[C@@H](C)c7ccc(-c8scnc8C)cc7)C(C)C)on6)CC5)nc4c3F)c12 [Compound 18, (2S,4R)-1-[(2R)-2-[3-[[1-[2-[4-(3-azabicyclo[3.2.1]octan-3-yl)-7-(8-ethynyl-3-hydroxy-1-naphthyl)-8-fluoro-pyrido[4,3-d]pyrimidin-2-yl]oxyethyl]-4-piperidyl]methoxy]isoxazol-5-yl]-3-methyl-butanoyl]-4-hydroxy-N-[(1S)-1-[4-(4-methylthiazol-5-yl)phenyl]ethyl]pyrrolidine-2-carboxamide]",DC50,AsPC-1 HiBiT-KRASG12D,> 3 µM
same,DC50,SW1573 HiBiT-KRASG12C,> 3 µM
"CCc1cccc2cc(O)cc(-c3ncc4c(N5CC6CCC(C6)C5)nc(OCCN5CCC(COCC(=O)N[C@H](C(=O)N6C[C@H](O)C[C@H]6C(=O)N[C@@H](C)c6ccc(-c7scnc7C)cc6)C(C)(C)C)CC5)nc4c3F)c12 [Compound 19, (2S,4R)-1-[(2S)-2-[[2-[[1-[2-[4-(3-azabicyclo[3.2.1]octan-3-yl)-7-(8-ethyl-3-hydroxy-1-naphthyl)-8-fluoro-pyrido[4,3-d]pyrimidin-2-yl]oxyethyl]-4-piperidyl]methoxy]acetyl]amino]-3,3-dimethyl-butanoyl]-4-hydroxy-N-[(1S)-1-[4-(4-methylthiazol-5-yl)phenyl]ethyl]pyrrolidine-2-carboxamide]",DC50,AsPC-1 HiBiT-KRASG12D,> 3 µM
same,DC50,SW1573 HiBiT-KRASG12C,1 to 3 µM
same,Dmax,SW1573 HiBiT-KRASG12C,20 to 60%
"CCc1cccc2cc(O)cc(-c3ncc4c(N5CC6CCC(C5)N6)nc(OCCN5CCC(COc6cc([C@H](C(=O)N7C[C@H](O)C[C@H]7C(=O)N[C@@H](C)c7ccc(-c8scnc8C)cc7)C(C)C)on6)CC5)nc4c3F)c12 [Compound 20, (2S,4R)-1-[(2R)-2-[3-[[1-[2-[4-(3,8-diazabicyclo[3.2.1]octan-3-yl)-7-(8-ethyl-3-hydroxy-1-naphthyl)-8-fluoro-pyrido[4,3-d]pyrimidin-2-yl]oxyethyl]-4-piperidyl]methoxy]isoxazol-5-yl]-3-methyl-butanoyl]-4-hydroxy-N-[(1S)-1-[4-(4-methylthiazol-5-yl)phenyl]ethyl]pyrrolidine-2-carboxamide]",Dmax,AsPC-1 HiBiT-KRASG12D,80 to 100%
same,DC50,AsPC-1 HiBiT-KRASG12D,< 0.6 µM
same,DC50,SW1573 HiBiT-KRASG12C,> 3 µM
"CCc1cccc2cc(O)cc(-c3ncc4c(N5CC6CCC(C5)N6)nc(OCCN5CCC(COCC(=O)N[C@H](C(=O)N6C[C@H](O)C[C@H]6C(=O)N[C@@H](C)c6ccc(-c7scnc7C)cc6)C(C)(C)C)CC5)nc4c3F)c12 [Compound 21, (2S,4R)-1-[(2S)-2-[[2-[[1-[2-[4-(3,8-diazabicyclo[3.2.1]octan-3-yl)-7-(8-ethyl-3-hydroxy-1-naphthyl)-8-fluoro-pyrido[4,3-d]pyrimidin-2-yl]oxyethyl]-4-piperidyl]methoxy]acetyl]amino]-3,3-dimethyl-butanoyl]-4-hydroxy-N-[(1S)-1-[4-(4-methylthiazol-5-yl)phenyl]ethyl]pyrrolidine-2-carboxamide]",Dmax,AsPC-1 HiBiT-KRASG12D,80 to 100%
same,DC50,AsPC-1 HiBiT-KRASG12D,< 0.6 µM
same,DC50,SW1573 HiBiT-KRASG12C,> 3 µM
